# Data taken from US8859776B2, “Substituted piperidines that increase p53 activity and the uses thereof” (Merck Sharp & Dohme Corp., priority 2009, dated 2014).
# Target: HDM2 protein (Homo sapiens, UniProt Q00987)
# Experiment: fluorescence polarization assay for HDM2 inhibitory activity
# Assay type: binding
# Settings: read-out: FP (IC 50 uM)
# Excerpt: The inventive compounds can readily be evaluated to determine activity at the HDM2 protein by known methods such as the fluorescence polarization screening assay that measures the inhibitory concentration that achieves 50% of maximal activity (FP IC50) and the dissociation constant for inhibitor binding (FP Ki). [Zhang et al., J. Analytical Biochemistry 331: 138-146 (2004)].
# Chain of HDM2 protein (Q00987 whole entry): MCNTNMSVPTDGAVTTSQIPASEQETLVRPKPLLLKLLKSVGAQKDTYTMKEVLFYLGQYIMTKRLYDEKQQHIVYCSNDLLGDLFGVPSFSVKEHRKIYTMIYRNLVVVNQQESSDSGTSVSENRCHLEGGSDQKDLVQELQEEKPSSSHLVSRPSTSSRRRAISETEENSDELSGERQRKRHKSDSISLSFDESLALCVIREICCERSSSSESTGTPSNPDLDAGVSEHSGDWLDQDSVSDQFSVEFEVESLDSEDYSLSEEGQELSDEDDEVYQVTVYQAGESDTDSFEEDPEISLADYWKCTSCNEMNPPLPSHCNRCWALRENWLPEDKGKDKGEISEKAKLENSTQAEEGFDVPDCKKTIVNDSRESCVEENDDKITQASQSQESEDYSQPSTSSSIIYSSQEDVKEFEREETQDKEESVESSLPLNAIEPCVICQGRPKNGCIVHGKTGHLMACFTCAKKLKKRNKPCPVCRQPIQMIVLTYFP
row,SMILES,IC50 [µM]
1,CCC[C@H]1N(C(=O)c2cnccc2C(F)(F)F)CCC[C@@]1(Oc1csc(C(F)(F)F)c1)C(=O)N1CCC(C#N)(c2ccccc2OCCCCC(=O)O)CC1 [Compound A4],0.014
2,CCC[C@H]1N(C(=O)c2cnccc2C(F)(F)F)CCC[C@@]1(Oc1csc(C(F)(F)F)c1)C(=O)N1CCC(c2ccccc2OCCCC(=O)NS(=O)(=O)C2CC2)CC1 [Compound A2],0.009
3,CCC[C@H]1N(C(=O)c2cnccc2C(F)(F)F)CCC[C@@]1(Oc1csc(C(F)(F)F)c1)C(=O)N1CCC(c2nn[nH]n2)(c2ccccc2OC)CC1 [Compound A54],0.019
4,"CCC[C@H]1N(C(=O)c2cnccc2C(F)(F)F)CCC[C@@]1(Oc1csc(C(F)(F)F)c1)C(=O)N1CCC(c2ccccc2CCc2nnn[nH]2)CC1 [Compound A133, (4-(2-(2-(1H-tetrazol-5-yl)ethyl)phenyl)piperidin-1-yl)((2R,3S)-2-propyl-1-(4-(trifluoromethyl)nicotinoyl)-3-(5-(trifluoromethyl)thiophen-3-yloxy)piperidin-3-yl)methanone]",0.011
5,CCC[C@H]1N(C(=O)c2cnccc2C(F)(F)F)CCC[C@@]1(Oc1ccc(C(F)(F)F)cc1)C(=O)N1CCC(C#N)(c2ccccc2CCC(=O)O)CC1 [Compound A83],0.013
6,"CCC[C@H]1N(C(=O)c2ncccc2C(F)(F)F)CCC[C@@]1(Oc1csc(C(F)(F)F)c1)C(=O)N1CCC(O)(c2ccccc2OCCCP(=O)(O)O)CC1 [Compound A89, 3-(2-(4-hydroxy-1-((2R,3S)-2-propyl-1-(3-(trifluoromethyl)picolinoyl)-3-(5-(trifluoromethyl)thiophen-3-yloxy)piperidine-3-carbonyl)piperidin-4-yl)phenoxy)propylphosphonic acid]",0.011
7,CCC[C@H]1N(C(=O)c2ncccc2C(F)(F)F)CCC[C@@]1(Oc1csc(C(F)(F)F)c1)C(=O)N1CCC(O)(c2ccccc2O[C@@H]2CC[C@](C)(C(=O)NS(C)(=O)=O)C2)CC1 [Compound A145],0.008
